# Source: PubChem BioAssay (NCI)
#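 Five compound concentrations were applied to cells in 96-well plates for 48 hours; endpoints were derived by simple linear interpolation of the resulting dose-response curve. Here, GI50 denotes the concentration required for 50% inhibition of growth. Definition used: TGI = concentration required for complete inhibition of growth.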
# Experiments:
# Experiment in all cases: NCI-60 cell line screen, 48 h
# OVCAR-5 ovarian = tested on: OVCAR-5 ovarian
# K-562 leukemia = tested on: K-562 leukemia
# MDA-MB-435 = tested on: MDA-MB-435
# HCC-2998 colon = tested on: HCC-2998 colon
# MCF7 breast = tested on: MCF7 breast
# EKVX NSCLC = tested on: EKVX NSCLC
# OVCAR-3 ovarian = tested on: OVCAR-3 ovarian
# SW-620 colon = tested on: SW-620 colon
# UO-31 renal = tested on: UO-31 renal
# IGROV1 ovarian = tested on: IGROV1 ovarian
# SF-539 CNS = tested on: SF-539 CNS
# A549 NSCLC = tested on: A549 NSCLC
# HT29 colon = tested on: HT29 colon
# U251 CNS = tested on: U251 CNS
# CAKI-1 renal = tested on: CAKI-1 renal
# OVCAR-8 ovarian = tested on: OVCAR-8 ovarian
# MALME-3M melanoma = tested on: MALME-3M melanoma
# TK-10 renal = tested on: TK-10 renal
# A498 renal = tested on: A498 renal
# SK-MEL-28 melanoma = tested on: SK-MEL-28 melanoma
# COLO 205 colon = tested on: COLO 205 colon
# SF-268 CNS = tested on: SF-268 CNS
# NCI/ADR-RES ovarian = tested on: NCI/ADR-RES ovarian
# M14 melanoma = tested on: M14 melanoma
# HCT-116 colon = tested on: HCT-116 colon
# OVCAR-4 ovarian = tested on: OVCAR-4 ovarian
# SK-MEL-2 melanoma = tested on: SK-MEL-2 melanoma
# DU-145 prostate = tested on: DU-145 prostate
# 786-0 renal = tested on: 786-0 renal
# MDA-MB-231 breast = tested on: MDA-MB-231 breast
# NCI-H460 lung = tested on: NCI-H460 lung
# UACC-62 melanoma = tested on: UACC-62 melanoma
# SNB-19 CNS = tested on: SNB-19 CNS
# NCI-H23 lung = tested on: NCI-H23 lung
# SK-OV-3 ovarian = tested on: SK-OV-3 ovarian
# LOX IMVI melanoma = tested on: LOX IMVI melanoma
# BT-549 breast = tested on: BT-549 breast
# UACC-257 melanoma = tested on: UACC-257 melanoma
# HCT-15 colon = tested on: HCT-15 colon
# NCI-H226 lung = tested on: NCI-H226 lung
# HOP-62 NSCLC = tested on: HOP-62 NSCLC
# SK-MEL-5 melanoma = tested on: SK-MEL-5 melanoma
# T-47D breast = tested on: T-47D breast
# ACHN renal = tested on: ACHN renal
# RXF 393 renal = tested on: RXF 393 renal
# PC-3 prostate = tested on: PC-3 prostate
# SF-295 CNS = tested on: SF-295 CNS
# SR leukemia = tested on: SR leukemia
# KM12 colon = tested on: KM12 colon
# RPMI-8226 leukemia = tested on: RPMI-8226 leukemia
# HL-60(TB) leukemia = tested on: HL-60(TB) leukemia
# NCI-H522 lung = tested on: NCI-H522 lung
# CCRF-CEM leukemia = tested on: CCRF-CEM leukemia
# SNB-75 CNS = tested on: SNB-75 CNS
# MOLT-4 leukemia = tested on: MOLT-4 leukemia
# HS 578T breast = tested on: HS 578T breast
# SN12C renal = tested on: SN12C renal
structure (smiles),measurement,setting,value
CC12CCC(C(=Nc3ccc([N+](=O)[O-])cc3)C1=O)C2(C)C (stereo not given),TGI,OVCAR-5 ovarian,> 100 µM
same,TGI,K-562 leukemia,55.2 µM
same,TGI,MDA-MB-435,64.6 µM
same,TGI,HCC-2998 colon,38.2 µM
same,TGI,MCF7 breast,> 100 µM
same,TGI,EKVX NSCLC,> 100 µM
same,TGI,OVCAR-3 ovarian,55.1 µM
same,TGI,SW-620 colon,98.4 µM
same,TGI,UO-31 renal,> 100 µM
same,TGI,IGROV1 ovarian,57.3 µM
same,TGI,SF-539 CNS,42.2 µM
same,TGI,A549 NSCLC,> 100 µM
same,TGI,HT29 colon,> 100 µM
same,TGI,U251 CNS,97.6 µM
same,TGI,CAKI-1 renal,> 100 µM
same,TGI,OVCAR-8 ovarian,55.3 µM
same,TGI,MALME-3M melanoma,30 µM
same,TGI,TK-10 renal,59 µM
same,TGI,A498 renal,> 100 µM
same,TGI,SK-MEL-28 melanoma,37.4 µM
same,TGI,COLO 205 colon,44.6 µM
same,TGI,SF-268 CNS,47.3 µM
same,TGI,NCI/ADR-RES ovarian,63.5 µM
same,TGI,M14 melanoma,> 100 µM
same,TGI,HCT-116 colon,> 100 µM
same,TGI,OVCAR-4 ovarian,69.8 µM
same,TGI,SK-MEL-2 melanoma,49.2 µM
same,TGI,DU-145 prostate,79.5 µM
same,TGI,786-0 renal,78.5 µM
same,TGI,MDA-MB-231 breast,76.6 µM
same,TGI,NCI-H460 lung,> 100 µM
same,TGI,UACC-62 melanoma,> 100 µM
same,TGI,SNB-19 CNS,> 100 µM
same,TGI,NCI-H23 lung,99.5 µM
same,TGI,SK-OV-3 ovarian,> 100 µM
same,TGI,LOX IMVI melanoma,31.3 µM
same,TGI,BT-549 breast,> 100 µM
same,TGI,UACC-257 melanoma,> 100 µM
same,TGI,HCT-15 colon,> 100 µM
same,TGI,NCI-H226 lung,> 100 µM
same,TGI,HOP-62 NSCLC,81.9 µM
same,TGI,SK-MEL-5 melanoma,90.7 µM
same,TGI,T-47D breast,69.5 µM
same,TGI,ACHN renal,> 100 µM
same,TGI,RXF 393 renal,44.9 µM
same,TGI,PC-3 prostate,> 100 µM
same,TGI,SF-295 CNS,> 100 µM
same,TGI,SR leukemia,59.3 µM
same,TGI,KM12 colon,92.9 µM
same,TGI,RPMI-8226 leukemia,52.3 µM
CN(C)c1ccc(-c2cc(-c3cccc(NS(C)(=O)=O)c3)nc(N)c2C#N)cc1,GI50,OVCAR-5 ovarian,0.121 µM
same,TGI,OVCAR-5 ovarian,> 74.8 µM
same,GI50,HL-60(TB) leukemia,0.0362 µM
same,TGI,HL-60(TB) leukemia,0.411 µM
same,GI50,K-562 leukemia,0.0372 µM
same,TGI,K-562 leukemia,48.5 µM
same,GI50,MDA-MB-435,0.0122 µM
same,TGI,MDA-MB-435,0.035 µM
same,GI50,HCC-2998 colon,0.0925 µM
same,TGI,HCC-2998 colon,0.866 µM
same,GI50,MCF7 breast,0.238 µM
same,TGI,MCF7 breast,17.9 µM
same,GI50,EKVX NSCLC,0.133 µM
same,TGI,EKVX NSCLC,> 63.8 µM
same,GI50,OVCAR-3 ovarian,0.0226 µM
same,TGI,OVCAR-3 ovarian,0.0568 µM
same,GI50,SW-620 colon,0.0411 µM
same,TGI,SW-620 colon,18.6 µM
same,GI50,UO-31 renal,0.0562 µM
same,TGI,UO-31 renal,45 µM
same,GI50,IGROV1 ovarian,0.0624 µM
same,TGI,IGROV1 ovarian,30.8 µM
same,GI50,SF-539 CNS,0.0279 µM
same,TGI,SF-539 CNS,0.173 µM
same,GI50,A549 NSCLC,0.0537 µM
same,TGI,A549 NSCLC,> 56.2 µM
same,GI50,HT29 colon,0.0319 µM
same,TGI,HT29 colon,0.457 µM
same,GI50,U251 CNS,0.0418 µM
same,TGI,U251 CNS,20.4 µM
same,GI50,CAKI-1 renal,0.0348 µM
same,TGI,CAKI-1 renal,15.1 µM
same,GI50,OVCAR-8 ovarian,0.0515 µM
same,TGI,OVCAR-8 ovarian,> 87.8 µM
same,GI50,NCI-H522 lung,< 0.013 µM
same,TGI,NCI-H522 lung,1.21 µM
same,GI50,MALME-3M melanoma,0.948 µM
same,TGI,MALME-3M melanoma,47.9 µM
same,GI50,TK-10 renal,0.0735 µM
same,TGI,TK-10 renal,> 55.2 µM
same,GI50,A498 renal,0.054 µM
same,TGI,A498 renal,38.8 µM
same,GI50,SK-MEL-28 melanoma,0.0508 µM
same,TGI,SK-MEL-28 melanoma,35.1 µM
same,GI50,CCRF-CEM leukemia,0.0379 µM
same,TGI,CCRF-CEM leukemia,> 100 µM
same,GI50,COLO 205 colon,0.025 µM
same,TGI,COLO 205 colon,0.0729 µM
same,GI50,SF-268 CNS,0.0561 µM
same,TGI,SF-268 CNS,28.9 µM
same,GI50,SNB-75 CNS,0.0272 µM
same,TGI,SNB-75 CNS,3.22 µM
same,GI50,M14 melanoma,0.0262 µM
same,TGI,M14 melanoma,13.4 µM
same,GI50,HCT-116 colon,0.0404 µM
same,TGI,HCT-116 colon,2.19 µM
same,GI50,OVCAR-4 ovarian,0.522 µM
same,TGI,OVCAR-4 ovarian,53.8 µM
same,GI50,SK-MEL-2 melanoma,0.0449 µM
same,TGI,SK-MEL-2 melanoma,21.8 µM
same,GI50,MOLT-4 leukemia,0.0822 µM
same,TGI,MOLT-4 leukemia,> 58.4 µM
same,GI50,786-0 renal,0.0491 µM
same,TGI,786-0 renal,13.5 µM
same,GI50,MDA-MB-231 breast,0.11 µM
same,TGI,MDA-MB-231 breast,1.52 µM
same,GI50,NCI-H460 lung,0.0378 µM
same,TGI,NCI-H460 lung,18.6 µM
same,GI50,UACC-62 melanoma,0.0357 µM
same,TGI,UACC-62 melanoma,19.8 µM
same,GI50,SNB-19 CNS,0.0526 µM
same,TGI,SNB-19 CNS,> 48.9 µM
same,GI50,NCI-H23 lung,0.0457 µM
same,TGI,NCI-H23 lung,20.5 µM
same,GI50,SK-OV-3 ovarian,0.033 µM
same,TGI,SK-OV-3 ovarian,1.74 µM
same,GI50,LOX IMVI melanoma,0.0466 µM
same,TGI,LOX IMVI melanoma,13.5 µM
same,GI50,BT-549 breast,0.0645 µM
same,TGI,BT-549 breast,4.65 µM
same,GI50,UACC-257 melanoma,0.0563 µM
same,TGI,UACC-257 melanoma,44.6 µM
same,GI50,HS 578T breast,0.0292 µM
same,TGI,HS 578T breast,49.2 µM
same,GI50,HCT-15 colon,0.0362 µM
same,TGI,HCT-15 colon,11.8 µM
same,GI50,NCI-H226 lung,0.045 µM
same,TGI,NCI-H226 lung,17.6 µM
same,GI50,HOP-62 NSCLC,0.045 µM
same,TGI,HOP-62 NSCLC,29.6 µM
same,GI50,SK-MEL-5 melanoma,0.0414 µM
same,TGI,SK-MEL-5 melanoma,0.997 µM
same,GI50,T-47D breast,0.951 µM
same,TGI,T-47D breast,35.9 µM
same,GI50,ACHN renal,0.067 µM
same,TGI,ACHN renal,23.3 µM
same,GI50,RXF 393 renal,0.0183 µM
same,TGI,RXF 393 renal,0.0565 µM
same,GI50,PC-3 prostate,0.0327 µM
same,TGI,PC-3 prostate,13.3 µM
same,GI50,SF-295 CNS,0.0274 µM
same,TGI,SF-295 CNS,3.95 µM
same,GI50,SR leukemia,0.0359 µM
same,TGI,SR leukemia,26.7 µM
same,GI50,SN12C renal,0.0537 µM
same,TGI,SN12C renal,20.7 µM
same,GI50,KM12 colon,0.0381 µM
same,TGI,KM12 colon,1.75 µM
same,GI50,RPMI-8226 leukemia,0.0416 µM
same,TGI,RPMI-8226 leukemia,2.55 µM
